Broadly, the EC50 is the midpoint of the concentration-response curve. As a reminder, the IC50 is the point on the concentration scale where inhibition reaches its midpoint. The low end stands for inhibition by little substance, the high end for a need for much substance.

The test system of one assay is mD4-VV surrogate virus. Put plainly: microbe, parasite or virus in culture. The class given is cell-based, mD4/vaccinia hybrid virus. As to conditions: Hybrid virus, BSC-1, read-out: mD4 EC50.
Assay [1] has as its target E9/A20/D4 proteins (molluscum mD4) (Molluscum contagiosum virus, UniProt Q98260). Put plainly: biochemical.
The next assay deals with VV. Put plainly: microbe, parasite or virus in culture. The assay is classed as cell-based, vaccinia virus. The following applies: Orthopoxvirus vaccinia, BSC-1, read-out: VV EC50.

Some results are limits rather than exact numbers.

Sequence of E9/A20/D4 proteins (molluscum mD4) (Q98260 1-226): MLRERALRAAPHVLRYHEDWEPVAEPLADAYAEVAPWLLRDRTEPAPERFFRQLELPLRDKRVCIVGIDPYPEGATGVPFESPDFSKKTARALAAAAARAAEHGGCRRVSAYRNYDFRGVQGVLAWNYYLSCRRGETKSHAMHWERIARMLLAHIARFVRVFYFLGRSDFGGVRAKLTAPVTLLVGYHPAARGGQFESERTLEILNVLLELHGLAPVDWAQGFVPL

As to `CCC(C(=O)Nc1sccc1C(=O)NCc1ccc(F)cc1)c1ccccc1` (stereo not shown) [Compound 179, 2-(2-Phenylbutanamido)-N-(4-fluorobenzyl)thiophene-3-carboxamide], the EC50 in the assay on mD4-VV surrogate virus is 9.5 µM. Moreover, the 50% inhibitory concentration (IC50) in assay [1] turned out to be 51.3 µM.
For `O=C(NCc1ccc(Cl)cc1)c1nnsc1NC(=O)N1CCN(c2ccccc2F)CC1` [Compound 168, 4-(2-Fluoro-phenyl)-piperazine-1-carboxylic acid [4-(4-chloro-benzylcarbamoyl)-[1,2,3]thiadiazol-5-yl]-amide] the same measures were 11.9 µM and 26.3 µM.
On the same counts, the results for `O=C(NCc1ccc(Cl)nc1)c1ccsc1NC(=O)N1CCN(c2ccccn2)CC1` [Compound 170, N-(3-((6-Chloropyridin-3-yl)methylcarbamoyl)thiophen-2-yl)-4-(pyridin-2-yl)piperazine-1-carboxamide] are 14.9 µM and over 200 µM.
For `CN(Cc1ccccc1)C(=O)c1ccsc1NC(=O)N1CCN(c2ccccn2)CC1` [Compound 173, N-(3-(N-Benzyl-N-methylcarbamoyl)thiophen-2-yl)-4-(pyridin-2-yl)piperazine-1-carboxamide], the EC50 in the assay with mD4-VV surrogate virus amounted to 11.9 µM. For the same compound, the half-maximal inhibitory concentration (IC50) in assay [1] was over 200 µM.
Take `O=C(NCc1ccc(F)c(F)c1)c1ccsc1NC(=O)N1CCN(c2ccccn2)CC1` [Compound 159, N-(3-(3,4-Difluorobenzylcarbamoyl)thiophen-2-yl)-4-(pyridin-2-yl)piperazine-1-carboxamide]: the 50% effective concentration (EC50) in the assay with mD4-VV surrogate virus is 12.8 µM. Besides, the 50% inhibitory concentration (IC50) in assay [1] came out at 118 µM.
For `O=C(NCc1ccc(F)cc1)c1ccsc1NC(=O)N1CCN(c2ccccn2)CC1` [Compound 181, N-(3-(4-Fluorobenzylcarbamoyl)thiophen-2-yl)-4-(pyridin-2-yl)piperazine-1-carboxamide] the same measures were 16 µM and 135 µM.
Turning to `O=C(NCc1ccc(F)cc1)c1nnsc1NC(=O)N1CCN(c2ccccn2)CC1` [Compound 180, N-(4-(4-Fluorobenzylcarbamoyl)-1,2,3-thiadiazol-5-yl)-4-(pyridin-2-yl)piperazine-1-carboxamide], the EC50 with mD4-VV surrogate virus stood at 12.9 µM. The same compound registered a 50% inhibitory concentration (IC50) in assay [1] of 39 µM.
`CCC(C(=O)Nc1sccc1C(=O)NCc1ccccc1)c1ccccc1` (stereo not shown) [Compound 161, 2-(2-Phenylbutanamido)-N-benzylthiophene-3-carboxamide]: the EC50 in the assay with mD4-VV surrogate virus came out at 12 µM. For the same compound, the half-inhibitory concentration (IC50) in assay [1] was determined as 140 µM.
On to `O=C(NCc1ccccc1)c1nnsc1NC(=O)N1CCN(c2ccccn2)CC1` [Compound 119, 4-Pyridin-2-yl-piperazine-1-carboxylic acid (4-benzylcarbamoyl-[1,2,3]thiadiazol-5-yl)-amide], for which the concentration for a half-maximal effect (EC50) in the assay with mD4-VV surrogate virus stood at 10.3 µM. Besides, the half-inhibitory concentration (IC50) in assay [1] is over 100 µM.
For `O=C(NCc1ccc(Cl)cc1)c1nnsc1NC(=O)C1CCN(c2ccccn2)CC1` [Compound 167, N-(4-(4-Chlorobenzylcarbamoyl)-1,2,3-thiadiazol-5-yl)-1-(pyridin-2-yl)piperidine-4-carboxamide] the same measures were 17.8 µM and 98.6 µM.
For `CCC(C(=O)Nc1snnc1-c1ccc(C(F)(F)F)cc1)c1ccccc1` (stereo not shown) [Compound 109, 2-Phenyl-N-[4-(4-trifluoromethyl-phenyl)-[1,2,3]thiadiazol-5-yl]-butyramide], the EC50 with mD4-VV surrogate virus was 0.8 µM. The midpoint of inhibition in assay [1], the IC50, lay at 68.6 µM.
Consider `CCC(C(=O)Nc1scc(C)c1C(=O)OC)c1ccccc1` (stereo not shown) [Compound 32, 4-Methyl-2-(2-phenyl-butyrylamino)-thiophene-3-carboxylic acid methyl ester], for which the concentration for a half-maximal effect (EC50) in the assay on VV was found to be 32.9 µM.
As for `CCOC(=O)c1c(NC(=O)C2CCCCC2)sc(C(N)=O)c1C` [Compound 4, ethyl 5-carbamoyl-2-(cyclohexanecarboxamido)-4-methylthiophene-3-carboxylate], the half-maximal effective concentration (EC50) in the assay on VV amounted to 48.9 µM.
`CCC(C(=O)Nc1scnc1C(=O)NCc1ccc(Cl)cc1)c1ccccc1` (stereo not shown) [Compound 163, 5-(2-Phenylbutanamido)-N-(4-chlorobenzyl)thiazole-4-carboxamide]: in the assay on mD4-VV surrogate virus, the EC50 was found to be 12.1 µM. The 50% inhibitory concentration (IC50) in assay [1] is over 100 µM.
With `O=C(NCCN1CCOCC1)Nc1snnc1C(=O)NCc1ccc(Cl)cc1` [Compound 183, 1-(4-(4-Chlorobenzylcarbamoyl)-1,2,3-thiadiazol-5-yl)-3-(2-morpholinoethyl)urea], the concentration giving a half-maximal response (EC50) in the assay on mD4-VV surrogate virus turned out to be 11.9 µM. The IC50 in assay [1] is over 100 µM.
Regarding `CCC(C(=O)Nc1sccc1C(=O)NCc1ccc(F)c(F)c1)c1ccccc1` (stereo not shown) [Compound 160, 2-(2-Phenylbutanamido)-N-(3,4-difluorobenzyl)thiophene-3-carboxamide], the EC50 in the assay on mD4-VV surrogate virus is 10.6 µM. This compound had an IC50 in assay [1] of 128 µM.
On the same counts, the results for `CCC(C(=O)Nc1sccc1C(=O)NCc1ccc(Cl)cc1)c1ccccc1` (stereo not shown) [Compound 110, 2-(2-Phenylbutanamido)-N-(4-chlorobenzyl)thiophene-3-carboxamide] are 8 µM and over 100 µM.
In the case of `O=C(NCCc1ccccn1)Nc1snnc1C(=O)NCc1ccc(F)cc1` [Compound 184, 1-(4-(4-Fluorobenzylcarbamoyl)-1,2,3-thiadiazol-5-yl)-3-(2-(pyridin-2-yl)ethyl)urea], the EC50 with mD4-VV surrogate virus came to 22.8 µM. In assay [1], this compound registered an IC50 of 60 µM.
On to `CCC(C(=O)N(C(=O)C(CC)c1ccccc1)c1sc(C)c(C)c1C#N)c1ccccc1` (stereo not shown) [Compound 39, N-(3-Cyano-4,5-dimethyl-thiophen-2-yl)-2-phenyl-N-(2-phenyl-butyryl)-butyramide], for which the EC50 in the assay with VV was 11 µM.
As for `Cc1c(C(N)=O)sc(NC(=O)C2CCCC2)c1C#N` [Compound 40, 4-cyano-5-(cyclopentanecarboxamido)-3-methylthiophene-2-carboxamide], in the assay with VV, the EC50 was determined as 47.4 µM.
For the compound `O=C(NCCN1CCOCC1)Nc1snnc1C(=O)NCc1ccc(F)cc1` [Compound 182, 1-(4-(4-Fluorobenzylcarbamoyl)-1,2,3-thiadiazol-5-yl)-3-(2-morpholinoethyl)urea], the EC50 in the assay on mD4-VV surrogate virus is 12.4 µM. This compound also registered an IC50 in assay [1] of over 100 µM.
For the compound `COc1ccc(N2CCN(C(=O)Nc3snnc3C(=O)NCc3ccc(Cl)cc3)CC2)cc1` [Compound 86, N-(4-chlorobenzyl)-5-(4-(4-methoxyphenyl)piperazine-1-carboxamido)-1,2,3-thiadiazole-4-carboxamide], the concentration giving a half-maximal response (EC50) with VV is 32.6 µM.
As to `CCC(C(=O)Nc1ncc(C(=O)OC)s1)c1ccccc1` (stereo not shown) [Compound 77, methyl 2-(2-phenylbutanamido)thiazole-5-carboxylate], the concentration giving a half-maximal response (EC50) in the assay with VV is 21.4 µM.
Regarding `COc1ccccc1CN(C)C(=O)c1ccsc1NC(=O)N1CCN(c2ccccn2)CC1` [Compound 172, N-(3-(N-(2-Methoxybenzyl)-N-methylcarbamoyl)thiophen-2-yl)-4-(pyridin-2-yl)piperazine-1-carboxamide], the EC50 in the assay on mD4-VV surrogate virus was found to be 22.6 µM. In addition, the IC50 in assay [1] is 117 µM.
Regarding `CCC(C(=O)Nc1nc(-c2ccccc2)cs1)c1ccccc1` (stereo not shown) [Compound 76, 2-phenyl-N-(4-phenylthiazol-2-yl)butanamide], the concentration for a half-maximal effect (EC50) in the assay on VV stood at 18.4 µM.
In the case of `O=C(NCc1ccc(Cl)cc1)c1nnsc1NC(=O)N1CCN(c2ccccc2)CC1` [Compound 84, N-(4-chlorobenzyl)-5-(4-phenylpiperazine-1-carboxamido)-1,2,3-thiadiazole-4-carboxamide], the half-maximal effective concentration (EC50) was found to be 10 µM in the assay on mD4-VV surrogate virus and 9.4 µM with VV.
Turning to `Cc1nsc(NC(=O)C2CCc3ccccc32)c1C#N` (stereo not shown) [Compound 87, Indan-1-carboxylic acid (4-cyano-3-methyl-isothiazol-5-yl)-amide], the EC50 with VV was found to be 17 µM.

The record behind these values is patent US20250295652A1, “Inhibitors of Molluscum Contagiosum Infection and Methods Using the Same” (priority 2021, published 2025).
